For experiment [1], the target named is T1, phosphorylated Btk at Tyr223 (Homo sapiens, UniProt Q06187).
T1 construct: determine the endogenous levels of phosphorylated Btk at Tyr223; endogenous in cells; host or cells: Ramos cells (CRL-1596, ATCC)
Nature of the experiment: Btk pY223 cellular assay (HTRF, Ramos cells). To be noted: compound 3 hours, pervanadate or Na3VO4 stimulation, read-out: IC50 (nM) in cell Btk pY223. Type of experiment: cell-based. For orientation: Time-resolved FRET reads energy transfer from a long-lived donor to a nearby acceptor.
Procedure: Btk pY223 cellular assay is an HTRF based assay intended to determine the endogenous levels of phosphorylated Btk at Tyr223.
Briefly, Ramos cells were serum starved in 0.5% FBS-containing RPMI1640 overnight. The cells were then incubated with interested compounds at various concentrations in a CO2 incubator for 3 hours. After the incubation, cells were stimulated with 1 mM pervanadate (PV) or Na3VO4 (OV) for 20 min. Then, the cells were collected and lysed with 1× lysis buffer at RT for 10 min (4× lysis buffer supplied in the kit). 1× antibody mix was prepared by diluting anti-Btk-d2 and anti-pBtk-K in detection buffer (supplied in the kit). […] After mixing gently and spinning briefly, the plate was sealed up and kept in dark at RT for 18 hours. […] IC50 values were calculated with GraphPad Prism software using the sigmoidal dose-response function.

For the next experiment, the target named is EGFR (Homo sapiens, UniProt P00533). The experiment can be described thus: Biochemical kinase selectivity: IC50 determination of EGFR. Particulars: for IC50: TR-FRET, 20 μM ATP; for Fold of EGFR/Btk: ratio of IC50 values.
The next experiment deals with T2, Tec (Homo sapiens, UniProt P42680).
T2 sequence (P42680 1-631): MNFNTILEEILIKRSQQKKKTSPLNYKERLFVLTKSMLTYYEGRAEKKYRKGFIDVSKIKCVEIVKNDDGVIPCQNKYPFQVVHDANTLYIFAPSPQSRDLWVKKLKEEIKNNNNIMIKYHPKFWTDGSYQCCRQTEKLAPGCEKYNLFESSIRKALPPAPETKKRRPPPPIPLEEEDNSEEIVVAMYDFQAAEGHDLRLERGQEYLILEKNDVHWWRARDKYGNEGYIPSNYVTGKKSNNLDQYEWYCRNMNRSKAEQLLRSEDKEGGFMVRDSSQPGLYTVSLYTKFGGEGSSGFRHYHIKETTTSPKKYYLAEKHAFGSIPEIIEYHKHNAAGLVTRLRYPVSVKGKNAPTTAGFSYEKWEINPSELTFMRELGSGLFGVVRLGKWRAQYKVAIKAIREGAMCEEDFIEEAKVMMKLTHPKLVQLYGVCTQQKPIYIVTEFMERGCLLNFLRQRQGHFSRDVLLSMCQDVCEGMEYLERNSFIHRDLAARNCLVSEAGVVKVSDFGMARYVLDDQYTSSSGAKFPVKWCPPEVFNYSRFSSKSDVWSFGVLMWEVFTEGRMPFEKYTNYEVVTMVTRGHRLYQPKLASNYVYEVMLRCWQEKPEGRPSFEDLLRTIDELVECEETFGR
Nature of the experiment: Biochemical kinase selectivity: IC50 determination of Tec. To be noted: for IC50: TR-FRET, 280 μM ATP; for Fold of Tec/Btk: ratio of IC50 values.

In experiment [2] the target is T3, Btk kinase (aa2-659, Carna Biosciences) (Homo sapiens, UniProt Q06187).
T3 construct: purchased Carna Biosciences
The experiment can be described thus: Btk kinase enzymatic assay (TR-FRET). The experiment is classed as biochemical. Particulars: for IC50: TR-FRET, 30 μM ATP, compound incubated with kinase 60 minutes.

Some results are limits rather than exact numbers.

T1 sequence (Q06187 whole entry): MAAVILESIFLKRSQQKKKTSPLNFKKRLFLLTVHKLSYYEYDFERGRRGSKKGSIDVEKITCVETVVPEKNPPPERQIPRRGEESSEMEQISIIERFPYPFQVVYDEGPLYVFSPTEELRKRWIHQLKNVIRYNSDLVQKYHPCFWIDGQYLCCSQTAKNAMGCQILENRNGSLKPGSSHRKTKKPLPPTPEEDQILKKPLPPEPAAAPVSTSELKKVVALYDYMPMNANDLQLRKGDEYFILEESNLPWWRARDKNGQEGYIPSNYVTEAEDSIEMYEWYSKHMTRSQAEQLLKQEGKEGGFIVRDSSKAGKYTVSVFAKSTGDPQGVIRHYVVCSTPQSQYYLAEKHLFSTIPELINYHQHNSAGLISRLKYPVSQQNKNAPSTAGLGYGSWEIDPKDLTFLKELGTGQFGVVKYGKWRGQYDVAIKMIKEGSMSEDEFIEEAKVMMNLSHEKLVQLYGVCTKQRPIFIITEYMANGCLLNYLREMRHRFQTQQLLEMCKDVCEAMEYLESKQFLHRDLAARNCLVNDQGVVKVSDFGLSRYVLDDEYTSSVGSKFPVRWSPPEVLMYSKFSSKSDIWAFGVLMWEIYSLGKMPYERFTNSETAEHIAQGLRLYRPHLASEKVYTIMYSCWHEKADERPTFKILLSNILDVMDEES
Chain of EGFR (P00533 25-1210): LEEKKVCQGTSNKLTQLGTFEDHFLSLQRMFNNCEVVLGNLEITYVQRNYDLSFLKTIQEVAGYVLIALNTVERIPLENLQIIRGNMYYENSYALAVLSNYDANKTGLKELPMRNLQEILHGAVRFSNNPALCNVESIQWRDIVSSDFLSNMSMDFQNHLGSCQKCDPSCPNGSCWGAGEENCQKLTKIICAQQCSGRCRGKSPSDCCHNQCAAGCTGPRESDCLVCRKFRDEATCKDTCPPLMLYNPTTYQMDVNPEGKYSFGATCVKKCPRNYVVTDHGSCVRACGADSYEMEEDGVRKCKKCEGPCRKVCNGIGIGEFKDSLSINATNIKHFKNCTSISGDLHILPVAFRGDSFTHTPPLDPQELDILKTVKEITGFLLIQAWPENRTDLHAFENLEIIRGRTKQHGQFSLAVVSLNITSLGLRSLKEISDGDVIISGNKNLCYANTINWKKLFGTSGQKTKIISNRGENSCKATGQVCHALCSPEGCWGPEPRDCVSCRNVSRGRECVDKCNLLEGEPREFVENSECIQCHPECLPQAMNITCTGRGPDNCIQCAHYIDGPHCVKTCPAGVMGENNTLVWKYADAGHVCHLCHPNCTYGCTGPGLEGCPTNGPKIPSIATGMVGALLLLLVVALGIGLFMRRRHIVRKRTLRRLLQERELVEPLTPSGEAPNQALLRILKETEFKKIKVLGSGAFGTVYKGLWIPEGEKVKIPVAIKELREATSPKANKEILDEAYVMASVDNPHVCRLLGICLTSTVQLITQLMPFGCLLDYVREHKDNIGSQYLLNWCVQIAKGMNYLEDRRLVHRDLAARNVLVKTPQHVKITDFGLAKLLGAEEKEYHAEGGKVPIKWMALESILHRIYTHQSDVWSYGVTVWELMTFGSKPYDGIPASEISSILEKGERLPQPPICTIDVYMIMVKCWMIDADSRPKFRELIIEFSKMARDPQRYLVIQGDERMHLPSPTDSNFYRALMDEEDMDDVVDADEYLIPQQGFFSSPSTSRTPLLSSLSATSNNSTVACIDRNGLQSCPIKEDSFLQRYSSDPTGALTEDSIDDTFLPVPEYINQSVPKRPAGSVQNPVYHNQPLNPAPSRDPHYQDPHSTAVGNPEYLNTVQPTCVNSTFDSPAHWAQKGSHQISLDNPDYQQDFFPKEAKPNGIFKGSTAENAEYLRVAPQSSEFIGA
T3 sequence (Q06187 2-659): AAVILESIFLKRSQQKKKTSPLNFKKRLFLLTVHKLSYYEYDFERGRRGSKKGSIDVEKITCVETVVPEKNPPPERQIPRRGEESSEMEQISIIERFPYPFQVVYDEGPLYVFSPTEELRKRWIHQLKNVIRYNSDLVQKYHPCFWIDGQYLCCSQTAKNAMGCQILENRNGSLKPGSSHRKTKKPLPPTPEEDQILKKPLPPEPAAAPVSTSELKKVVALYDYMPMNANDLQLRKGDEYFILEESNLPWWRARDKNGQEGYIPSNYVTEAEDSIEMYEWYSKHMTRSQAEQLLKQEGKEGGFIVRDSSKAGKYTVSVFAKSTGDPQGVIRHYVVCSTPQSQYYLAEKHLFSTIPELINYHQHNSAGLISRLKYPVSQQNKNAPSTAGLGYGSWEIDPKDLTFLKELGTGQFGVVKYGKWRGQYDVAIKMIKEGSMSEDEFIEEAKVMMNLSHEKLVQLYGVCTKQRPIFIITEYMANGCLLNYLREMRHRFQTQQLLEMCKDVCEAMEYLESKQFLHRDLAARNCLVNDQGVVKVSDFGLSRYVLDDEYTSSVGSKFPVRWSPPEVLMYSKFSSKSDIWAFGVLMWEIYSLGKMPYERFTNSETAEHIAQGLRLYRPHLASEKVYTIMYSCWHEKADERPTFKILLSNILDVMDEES

For the compound `C=CC(=O)Nc1ccccc1C1CCNc2c(C(N)=O)c(-c3cc(Cl)c(OC)c(Cl)c3)nn21` (stereo not drawn) [169^#], the IC50 in experiment [1] stood at 28.2 nM; at EGFR it was 0.54 nM; against Tec, 37 nM.
In the case of `C=CC(=O)Nc1ccccc1C1CCNc2c(C(N)=O)c(-c3cc(F)c(F)c(Cl)c3)nn21` (stereo not drawn) [Example 158, reference compound], at EGFR, 0.49 nM corresponded to half-maximal inhibition (IC50) and the “Fold of EGFR/Btk” value is given as 0.2 fold. Further, on Tec, the IC50 was 56 nM and the “Fold of Tec/Btk” value was determined as 19 fold.
In the case of `C=CC(=O)N1CCC(C2CCNc3c(C(N)=O)c(-c4ccc(C)c(OC)c4)nn32)CC1` (stereo not drawn) [Example 174, reference compound], at EGFR, half-maximal inhibition (IC50) was put at 281 nM and the “Fold of EGFR/Btk” value was found to be 58.5 fold. Also, in experiment [2], the “affinity / inhibitory activity for Btk (in words)” value is on record as “low affinity for Btk”. Further, on Tec, the “selectivity of Btk over Tec (in words)” value is “almost no selectivity against Tec”, the IC50 turned out to be 64 nM and the “Fold of Tec/Btk” value is given as 13 fold.
On to `C=CC(=O)N1CCC(C2CCNc3c(C(N)=O)c(-c4cc(Cl)c(C)c(Cl)c4)nn32)CC1` (stereo not drawn) [Example A7, 7-(1-acryloylpiperidin-4-yl)-2-(3,5-dichloro-4-methylphenyl)-4,5,6,7-tetrahydropyrazolo[1,5-a]pyrimidine-3-carboxamide], for which the IC50 in experiment [1] was found to be 148 nM; on EGFR, 1190 nM; in experiment [2], 4.1 nM; at Tec it was 254 nM. Besides, the “Fold of EGFR/Btk” value at EGFR is reported as 289 fold. Besides, the “Fold of Tec/Btk” value at Tec is listed as 62 fold.
In the case of `C=CC(=O)N1CCC(C2CCNc3c(C(N)=O)c(-c4cc(OC)c(I)c(OC)c4)nn32)CC1` (stereo not drawn) [Example A8, 7-(1-acryloylpiperidin-4-yl)-2-(4-iodo-3,5-dimethoxyphenyl)-4,5, tetrahydropyrazolo[1,5-a]pyrimidine-3-carboxamide], the IC50 was found to be 14.8 nM in experiment [1], 1380 nM at EGFR, 0.93 nM in experiment [2] and 130 nM against Tec.
In the case of `C=CC(=O)N1CCC(C2CCNc3c(C(N)=O)c(-c4cc(OC)c(C)c(OCC)c4)nn32)CC1` (stereo not drawn) [Example A12, 7-(1-acryloylpiperidin-4-yl)-2-(3-ethoxy-5-methoxy-4-methylphenyl)-4,5,6,7-tetrahydropyrazolo[1,5-a]pyrimidine-3-carboxamide], the IC50 is 37.3 nM in experiment [1], more than 10000 nM at EGFR, 4.7 nM in experiment [2] and 289 nM against Tec. For the same compound, the “Fold of Tec/Btk” value at Tec was found to be 61 fold.
As for `C=CC(=O)N1CCC(C2CCNc3c(C(N)=O)c(-c4cc(Br)c(C)c(Br)c4)nn32)CC1` (stereo not drawn) [Example A16, 7-(1-acryloylpiperidin-4-yl)-2-(3,5-dibromo-4-methylphenyl)-4,5,6,7-tetrahydropyrazolo[1,5-a]pyrimidine-3-carboxamide], the IC50 is 2370 nM on EGFR, 7.1 nM in experiment [2] and 556 nM on Tec. At EGFR, the “Fold of EGFR/Btk” value was 333 fold. The “Fold of Tec/Btk” value on Tec came out at 78 fold.
For the compound `C=CC(=O)N1CCC(C2CCNc3c(C(N)=O)c(-c4cc(OC)c(-c5ccco5)c(OC)c4)nn32)CC1` (stereo not drawn) [Example A19, 7-(1-acryloylpiperidin-4-yl)-2-(4-(furan-2-yl)-3,5-dimethoxyphenyl)-4,5,6,7-tetrahydropyrazolo[1,5-a]pyrimidine-3-carboxamide], the IC50 on EGFR was more than 10000 nM; in experiment [2], 7.2 nM; against Tec it was 455 nM. Moreover, the “Fold of Tec/Btk” value at Tec is given as 63.2 fold.
Consider `C=CC(=O)N1CCC(C2CCNc3c(C(N)=O)c(-c4cc(OC)c(-c5cc[nH]n5)c(OC)c4)nn32)CC1` (stereo not drawn) [Example A27, 7-(1-acryloylpiperidin-4-yl)-2-(3,5-dimethoxy-4-(1H-pyrazol-3-yl)phenyl)-4,5,6,7-tetrahydropyrazolo[1,5-a]pyrimidine-3-carboxamide], for which the figures for the IC50 (in experiment [2]; against Tec) were 18 nM and more than 1000 nM, respectively.
In the case of `C=CC(=O)N1CCC(C2CCNc3c(C(N)=O)c(-c4cc(OC)c(-c5ccsc5)c(OC)c4)nn32)CC1` (stereo not drawn) [Example A28, 7-(1-acryloylpiperidin-4-yl)-2-(3,5-dimethoxy-4-(thiophen-3-yl)phenyl)-4,5,6,7-tetrahydropyrazolo[1,5-a]pyrimidine-3-carboxamide], the IC50 in experiment [2] is 16 nM. Moreover, at Tec, the IC50 is 369 nM and the “Fold of Tec/Btk” value was found to be 23 fold.
Turning to `C=CC(=O)N1CCC(C2CCNc3c(C(N)=O)c(-c4cc(C)c(C5CC5)c(C)c4)nn32)CC1` (stereo not drawn) [Example A29, 7-(1-acryloylpiperidin-4-yl)-2-(4-cyclopropyl-3,5-dimethylphenyl)-4,5,6,7-tetrahydropyrazolo[1,5-a]pyrimidine-3-carboxamide], the values for the IC50 (in experiment [2]; at Tec) were 16 nM and more than 1000 nM, respectively.
Turning to `C=CC(=O)N1CCC(C2CCNc3c(C(N)=O)c(-c4cc(C)cc(C)c4)nn32)CC1` (stereo not drawn) [Example A30, 7-(1-acryloylpiperidin-4-yl)-2-(3,5-dimethylphenyl)-4,5,6,7-tetrahydropyrazolo[1,5-a]pyrimidine-3-carboxamide], the IC50 was 53 nM in experiment [2] and more than 1000 nM against Tec.
Regarding `C=CC(=O)N1CCC(C2CCNc3c(C(N)=O)c(-c4cc(OC)c(C5CCCCC5)c(OC)c4)nn32)CC1` (stereo not drawn) [Example A39, 7-(1-acryloylpiperidin-4-yl)-2-(4-cyclohexyl-3,5-dimethoxyphenyl)-4,5,6,7-tetrahydropyrazolo[1,5-a]pyrimidine-3-carboxamide], on EGFR, the IC50 was 6080 nM and the “Fold of EGFR/Btk” value is given as 894 fold. Also, in experiment [2], half-maximal inhibition (IC50) required 6.8 nM. Besides, at Tec, the IC50 was 102 nM and the “Fold of Tec/Btk” value came out at 15 fold.
Regarding `C=CC(=O)N1CCC(C2CCNc3c(C(N)=O)c(-c4cc(OC)c(C5=CCCCC5)c(OC)c4)nn32)CC1` (stereo not drawn) [Example A40, 7-(1-acryloylpiperidin-4-yl)-2-(2,6-dimethoxy-2′,3′,4′,5′-tetrahydro-[1,1′-biphenyl]-4-yl)-4,5,6,7-tetrahydropyrazolo[1,5-a]pyrimidine-3-carboxamide], the concentration for half-maximal inhibition (IC50) worked out at 11 nM in experiment [2] and 253 nM at Tec. Moreover, on Tec, the “Fold of Tec/Btk” value stood at 23 fold.
For `C=CC(=O)N1CCC(C2CCNc3c(C(N)=O)c(-c4cc(OC)c(CCc5ccccc5)c(OC)c4)nn32)CC1` (stereo not drawn) [Example A42, 7-(1-acryloylpiperidin-4-yl)-2-(3,5-dimethoxy-4-phenethylphenyl)-4,5,6,7-tetrahydropyrazolo[1,5-a]pyrimidine-3-carboxamide], at EGFR, the IC50 came to 2000 nM and the “Fold of EGFR/Btk” value amounted to 668 fold. In experiment [2], this compound gave an IC50 of 3 nM. Besides, at Tec, inhibition was half-maximal at 53 nM (IC50) and the “Fold of Tec/Btk” value came to 18 fold.
For `C=CC(=O)N1CCC(C2CCNc3c(C(N)=O)c(-c4cc(OC)c(C(=C)c5ccccc5)c(OC)c4)nn32)CC1` (stereo not drawn) [Example A43, 7-(1-acryloylpiperidin-4-yl)-2-(3,5-dimethoxy-4-(1-phenylvinyl)phenyl)-4,5,6,7-tetrahydropyrazolo[1,5-a]pyrimidine-3-carboxamide] the same measures were 6180 nM, 909 fold, 6.8 nM, 39 nM and 5.7 fold.
As to `C=CC(=O)N1CCC(C2CCNc3c(C(N)=O)c(-c4cc(OC)c(C(C)c5ccccc5)c(OC)c4)nn32)CC1` (stereo not drawn) [Example A44, 7-(1-acryloylpiperidin-4-yl)-2-(3,5-dimethoxy-4-(1-phenylethyl)phenyl)-4,5,6,7-tetrahydropyrazolo[1,5-a]pyrimidine-3-carboxamide], the 50% inhibitory concentration (IC50) against EGFR is 3170 nM; in experiment [2], 4.9 nM; on Tec, 35 nM. The “Fold of EGFR/Btk” value on EGFR amounted to 647 fold. The “Fold of Tec/Btk” value on Tec worked out at 7.1 fold.
Take `C=CC(=O)N1CCC(C2CCNc3c(C(N)=O)c(-c4cc(OC)c(C5CC5)c(OC(C)C)c4)nn32)CC1` (stereo not drawn) [Example A45, 7-(1-acryloylpiperidin-4-yl)-2-(4-cyclopropyl-3-isopropoxy-5-methoxyphenyl)-4,5,6,7-tetrahydropyrazolo[1,5-a]pyrimidine-3-carboxamide]: the IC50 against EGFR was more than 10000 nM; in experiment [2], 4.4 nM; against Tec it was 362 nM. In addition, the “Fold of Tec/Btk” value on Tec was found to be 82 fold.
Regarding `C=CC(=O)N1CCC2Nc3c(C(N)=O)c(-c4cc(OC)c(C)c(OC)c4)nn3CC2C1` (stereo not drawn) [Example D2, 7-acryloyl-2-(3,5-dimethoxy-4-methylphenyl)-4,4a,5,6,7,8,8a,9-octahydropyrazolo[1,5-a]pyrido[4,3-d]pyrimidine-3-carboxamide], the IC50 in experiment [2] is 63 nM; on Tec, more than 1000 nM.

By IC50 is commonly meant the midpoint of a concentration-inhibition curve.

Source of the values: patent US20220298163A1, “BTK INHIBITORS WITH IMPROVED DUAL SELECTIVITY” (BEIGENE, LTD., priority 2017, published 2022).
